Test results from publication PMC5074515 (PLoS ONE, 2016).
≈ marks a conversion by molar mass, not a printed value. Counter-ions that a name gives are not always drawn. Like-named read-outs stand apart in the source and are kept apart here.

What was measured:
[1] = tested on: Mtb H37Ra (ATCC 25177); test: In vitro screen versus Mtb H37Ra (Alamar blue microdilution broth assay, MIC99); format: cell-based, M. tuberculosis; conditions: Mycobacterium tuberculosis
Method: The initial screening set and selected other compounds were tested for their inhibitory activity against Mtb H37Ra (ATCC 25177) and MAC NJ211 strains. Screening was performed at 1.28 and 12.8 μg/mL in Middlebrook 7H9 broth supplemented with 0.2% glycerol and ADC enrichment using a colorimetric (Alamar blue) microdilution broth assay by reported methods.[15]

[2] = tested on: MAC NJ211; test: In vitro screen versus MAC NJ211 (Alamar blue microdilution broth assay, MIC99); format: cell-based; conditions: read-out: MAC NJ211 MIC99
[3] = biological target: Mtb FtsZ (Mycobacterium tuberculosis, UniProt P9WN95); test: biochemical; format: biochemical
[4] = tested on: tubulin; test: Tubulin polymerization assay; format: biochemical, human; conditions: mean ± standard deviation, at least three times per assay; NA = not active up to 100 μM
[5] = tested on: Mtb H37Rv; test: In vitro qHTS assay against Mtb H37Rv (IC90); format: cell-based, M. tuberculosis; conditions: for IC90 / inhibition at 50 µM: Mycobacterium tuberculosis, H37RV; for IC90: read-out: Mtb H37Rv IC90; for fold more active against Mtb H37Rv than corresponding analog: 48 vs 23, 57 vs 56, 60 vs 24
[6] = tested on: M. tuberculosis 41 (Mtb 41) FtsZ reporter strain; format: cell-based
[7] = lowest drug concentration that completely inhibited growth
[8] = lowest drug concentration that completely inhibited growth, read-out: Mtb H37Ra MIC99
[9] = same MIC99 given in μM, read-out: Mtb H37Ra MIC99 (concentration in μM in parentheses)
[10] = mean ± standard deviation, at least three times per assay, NA = not active up to 100 μM, read-out: Mtb FtsZ Polymerization IC50
[11] = concentration that inhibits bacterial growth by 90%

Sequence of Mtb FtsZ (P9WN95 whole entry): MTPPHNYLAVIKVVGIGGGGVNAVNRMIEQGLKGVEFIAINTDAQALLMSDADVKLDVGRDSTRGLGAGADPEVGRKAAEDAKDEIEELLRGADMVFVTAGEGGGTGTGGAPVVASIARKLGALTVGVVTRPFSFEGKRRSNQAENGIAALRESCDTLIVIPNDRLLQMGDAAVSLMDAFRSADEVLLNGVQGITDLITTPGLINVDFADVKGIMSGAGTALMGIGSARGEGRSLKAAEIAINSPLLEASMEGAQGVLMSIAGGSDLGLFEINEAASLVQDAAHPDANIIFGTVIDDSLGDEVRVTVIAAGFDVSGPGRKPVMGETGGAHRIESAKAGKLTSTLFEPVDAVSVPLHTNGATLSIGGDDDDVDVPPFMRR

| SMILES | MIC99 [2, 7] | MIC99 [1, 8] | IC50 [3, 10] | IC90 [5, 11] | other results |
| --- | --- | --- | --- | --- | --- |
| COc1cc2c(c(OC)c1OC)-c1ccc(OC)c(=O)cc1[C@@H](NC(C)=O)CC2 [Compound 1, Colchicine] | > 64 µg/mL |  |  |  | MIC99 ([1]; read-out: Mtb H37Ra MIC99): > 64 µg/mL |
| O=C(O)c1cc(O)c2c(c1)C(=O)c1cccc(O)c1C2=O [Compound 2, Rhein] | > 128 µg/mL | 32 µg/mL |  |  | IC50 [3]: 44.6 ± 6.3 µM; MIC99 [1, 9]: 113 µM |
| O=c1c(O)c(-c2ccc(O)c(O)c2)oc2cc(O)cc(O)c12 [Compound 3, Quercetin dihydrate] |  | > 128 µg/mL |  |  | IC50 [3]: 21.7 ± 4.8 µM; MIC99 [2]: > 128 µg/mL |
| O=c1c(O)c(-c2cc(O)c(O)c(O)c2)oc2cc(O)cc(O)c12 [Compound 4, Myrcetin] |  | > 128 µg/mL |  |  | IC50 [3]: 42.4 ± 6.3 µM; MIC99 [2]: > 128 µg/mL |
| CN(C)[C@@H]1C(O)=C(C(N)=O)C(=O)[C@@]2(O)C(O)=C3C(=O)c4c(O)cccc4[C@@](C)(O)[C@H]3C[C@@H]12 [Compound 5, Tetracycline] |  | 1 µg/mL |  |  | IC50 [3]: 87.1 ± 10.7 µM |
| CN(C)c1ccc(O)c2c1C[C@H]1C[C@H]3[C@H](N(C)C)C(O)=C(C(N)=O)C(=O)[C@@]3(O)C(O)=C1C2=O [Compound 6, Minocycline] |  | ≤ 0.5 µg/mL |  |  | IC50 [3]: 37.3 ± 4.6 µM |
| C=CCOc1c(Br)cc(S(=O)(=O)c2cc(Br)c(O)c(Br)c2)cc1Br [Compound 7, Zantrin Z4] |  | 64 µg/mL |  |  | IC50 [4]: 77 ± 3 µM; MIC99 [2]: > 64 µg/mL |
| COc1cc2c(cc1O)CC[n+]1cc3cc(OC)c(OC)cc3cc1-2 [Compound 9, Pseudojatrorrhizine] | 64 µg/mL | > 64 µg/mL | 105 ± 32 µM |  |  |
| C[n+]1cc2c3c(ccc2c2ccc4cc5c(cc4c21)OCO5)OCO3 [Compound 10, Sanguinarine Cl‾ • H2O] | > 64 µg/mL | 64 µg/mL |  |  | IC50 [4]: 30 ± 7 µM; IC50 [3]: 23 ± 4 µM; MIC99 [1, 9]: 193 µM |
| CC/C(=C(\c1ccccc1)c1ccc(OCCN(C)C)cc1)c1ccccc1 [Compound 11, Tamoxifen citrate] | 32 µg/mL |  |  |  |  |
| Nc1nonc1C(=O)N/N=C/c1cc(Cl)cc(Cl)c1O [Compound 12, ChemBridge 5481893] | > 64 µg/mL | 64 µg/mL | 33.4 ± 3 µM |  | MIC99 [1, 9]: 202 µM |
| CC(C)c1c(O)ccc2c1CC[C@H]1C(C)(C)CCC[C@]21C [Compound 13, Totarol] | 25 µg/mL (≈ 87.3 µM) | 25 µg/mL | 47.5 ± 4.9 µM |  | MIC99 [1, 9]: 87.3 µM |
| COc1cc(/C=C(\C#N)C(N)=O)cc(CSc2nc3ccccc3s2)c1O [Compound 15, AG-825] |  |  | 31.7 ± 1.7 µM |  |  |
| CCN(CC)CCNc1nc(/C=C/c2ccc(Cl)cc2)nc2cc3ccccc3cc12 [Compound 16, Zantrin Z3] | 2 µg/mL (≈ 4.64 µM) | 1 µg/mL |  |  |  |
| Oc1ccc(Cl)cc1Cc1cc(Cl)cc(Cc2cc(Cl)ccc2O)c1O [Compound 17, Zantrin Z1] | 16 µg/mL (≈ 39.1 µM) | 8 µg/mL |  |  |  |
| CSc1ccc(/C=C2/C(C)=C(CC(=O)N(C)CCN(C)C)c3cc(F)ccc32)cc1 [Compound 19, (Z)-N-(2-(Dimethylamino)ethyl)-2-(5-fluoro-2-methyl-1-(4-(methylthio)benzylidene)-1H-inden-3-yl)-N-methylacetamide] |  | 16 µg/mL | 42.3 ± 6 µM | 6.67 ± 0.14 µM |  |

| SMILES | MIC99 [2, 7] | MIC99 [1, 8] | IC50 [3, 10] | IC90 [5, 11] | other results |
| --- | --- | --- | --- | --- | --- |
| CNCCN(C)C(=O)CC1=C(C)/C(=C/c2ccc(SC)cc2)c2ccc(F)cc21 [Compound 23, (Z)-2-(5-Fluoro-2-methyl-1-(4-(methylthio)benzylidene)-1H-inden-3-yl)-N-methyl-N-(2-(methylamino)ethyl)acetamide] |  | 8 µg/mL | 34.9 ± 7 µM | 8.28 ± 0.33 µM |  |
| CSc1ccc(/C=C2/C(C)=C(CC(=O)NCCN3CCCCC3)c3cc(F)ccc32)cc1 [Compound 24, (Z)-2-(5-Fluoro-2-methyl-1-(4-(methylthio)benzylidene)-1H-inden-3-yl)-N-(2-(piperidin-1-yl)ethyl)acetamide] |  |  | 26.5 ± 4.8 µM | 1.41 ± 0.03 µM | IC50 [4]: > 100 µM; melting point: 130 to 133 °C |
| CSc1ccc(/C=C2/C(C)=C(CC(=O)NCCN3CCCC3)c3cc(F)ccc32)cc1 [Compound 26, (Z)-2-(5-Fluoro-2-methyl-1-(4-(methylthio)benzylidene)-1H-inden-3-yl)-N-(2-(pyrrolidin-1-yl)ethyl)acetamide] |  | 8 µg/mL | 33.5 ± 5.9 µM | 3.04 ± 0.04 µM | melting point: 106 to 108 °C |
| CSc1ccc(/C=C2/C(C)=C(CC(=O)NCc3ccc(N(C)C)cc3)c3cc(F)ccc32)cc1 [Compound 35, (Z)-N-(4-(Dimethylamino)benzyl)-2-(5-fluoro-2-methyl-1-(4-(methylthio)benzylidene)-1H-inden-3-yl)acetamide] |  | 64 µg/mL | 22.9 ± 4.8 µM | > 100 µM | melting point: 174 to 177 °C; inhibition at 50 µM [5]: 82%; Mtb H37Rv IC90 [5, 11]: inactive |
| CSc1ccc(/C=C2/C(C)=C(C(C)C(=O)NCCCN3CCCCC3C)c3cc(F)ccc32)cc1 (stereo not drawn) [Compound 50, (Z)-2-(5-Fluoro-2-methyl-1-(4-(methylthio)benzylidene)-1H-inden-3-yl)-N-(3-(2-methylpiperidin-1-yl)propyl)propanamide] |  |  |  | 1.64 ± 0.07 µM | melting point: 87 to 89 °C |
| CSc1ccc(/C=C2/C(C)=C(C(C)C(=O)N3CCC[C@H]3CN3CCCC3)c3cc(F)ccc32)cc1 (stereo partly drawn) [Compound 52, 2-((Z)-5-Fluoro-2-methyl-1-(4-(methylthio)benzylidene)-1H-inden-3-yl)-1-((S)-2-(pyrrolidin-1-ylmethyl)pyrrolidin-1-yl)propan-1-one] |  |  |  | 2.55 ± 0.03 µM | melting point: 80 to 82 °C |
| CSc1ccc(/C=C2/C(C)=C(C(C)C(=O)N3CCC(N4CCCCC4)CC3)c3cc(F)ccc32)cc1 (stereo not drawn) [Compound 53, (Z)-1-([1,4'-Bipiperidin]-1'-yl)-2-(5-fluoro-2-methyl-1-(4-(methylthio)benzylidene)-1H-inden-3-yl)propan-1-one] |  |  |  | 2.84 ± 0.06 µM | melting point: 80 to 82 °C |
| CSc1ccc(/C=C2/C(C)=C(C(C)C(=O)N3CCN(CCCN(C)C)CC3)c3cc(F)ccc32)cc1 (stereo not drawn) [Compound 54, (Z)-1-(4-(3-(Dimethylamino)propyl)piperazin-1-yl)-2-(5-fluoro-2-methyl-1-(4-(methylthio)benzylidene)-1H-inden-3-yl)propan-1-one] |  |  |  | 3.72 ± 0.06 µM | melting point: 78 to 80 °C |
| CSc1ccc(/C=C2/C(C)=C(CC(=O)N(C)CCN(C)C(=O)C(N)C(C)C)c3cc(F)ccc32)cc1 (stereo not drawn) [Compound 56, (Z)-2-Amino-N-(2-(2-(5-fluoro-2-methyl-1-(4-(methylthio)benzylidene)-1H-inden-3-yl)-N-methylacetamido)ethyl)-N,3-dimethylbutanamide] |  | 8 µg/mL | 38 ± 6.3 µM | 4.34 ± 0.06 µM |  |
| CSc1ccc(/C=C2/C(C)=C(C(C)C(=O)N(C)CCN(C)C(=O)[C@@H](N)C(C)C)c3cc(F)ccc32)cc1 (stereo partly drawn) [Compound 57, (2S)-2-Amino-N-(2-(2-((Z)-5-fluoro-2-methyl-1-(4-(methylthio)benzylidene)-1H-inden-3-yl)-N-methylpropanamido)ethyl)-N,3-dimethylbutanamide] |  |  |  | 0.74 µM | melting point: 60 to 62 °C; fold more active against Mtb H37Rv than corresponding analog [5]: 6 fold |
| CSc1ccc(/C=C2/C(C)=C(CCNCc3ccccc3)c3cc(F)ccc32)cc1 [Compound 58] | 4 µg/mL (≈ 9.63 µM) | 2 µg/mL |  | 2.07 ± 0.01 µM |  |
| CSc1ccc(/C=C2/C(C)=C(CCNCc3ccco3)c3cc(F)ccc32)cc1 [Compound 59, (Z)-2-(5-Fluoro-2-methyl-1-(4-(methylthio)benzylidene)-1H-inden-3-yl)-N-(furan-2-ylmethyl)ethanamine] | 8 µg/mL (≈ 19.7 µM) | 4 µg/mL |  | 1.69 ± 0.06 µM |  |
| CSc1ccc(/C=C2/C(C)=C(CCNCCN3CCCCC3)c3cc(F)ccc32)cc1 [Compound 60, (Z)-2-(5-Fluoro-2-methyl-1-(4-(methylthio)benzylidene)-1H-inden-3-yl)-N-(2-(piperidin-1-yl)ethyl)ethanamine] |  | 2 µg/mL |  |  | MIC99 [2]: 8 µg/mL (≈ 18.3 µM); fold more active against Mtb H37Rv than corresponding analog [5]: 1.6 fold; IC90 [5]: 0.88 ± 0.01 µM |
| CSc1ccc(/C=C2\C(C)=C(CC(=O)NCCN(C)C)c3cc(F)ccc32)cc1 [Compound 61, (E)-N-(2-(Dimethylamino)ethyl)-2-(5-fluoro-2-methyl-1-(4-(methylthio)benzylidene)-1H-inden-3-yl)acetamide] | 16 µg/mL (≈ 39 µM) | 16 µg/mL | 44.6 ± 6.3 µM | 7.7 ± 0.33 µM |  |
| COc1cc(/C=C2\C=C(CC(=O)NCCN(C)C)c3cc(F)ccc32)cc(OC)c1OC [Compound 62, (E)-N-(2-(dimethylamino)ethyl)-2-(5-fluoro-1-(3,4,5-trimethoxybenzylidene)-1H-inden-3-yl)acetamide] | > 64 µg/mL | 32 µg/mL | 43.3 ± 9.8 µM | > 100 µM | MIC99 [1, 9]: 72.5 µM; FtsZ ring assembly in Mtb 41 [6]: inhibit FtsZ ring assembly; growth of Mtb 41 [6]: significant growth inhibition; inhibition at 50 µM [5]: 82% |
| CC[C@@H](CO)NCCN[C@@H](CC)CO [Ethambutol] | 4 to 8 µg/mL (≈ 19.6 to 39.2 µM) | 2 to 4 µg/mL |  |  |  |
